Experimental data taken from publication PMC12111771, “Structural Characterization and Bioactivity Evaluation of Selenium-Modified Dihydromyricetin from Vine Tea” (Foods, 2025).
Values after ≈ are worked out from the molar mass of the structure shown.

Legend:
α-amylase (α-AMY) = assay: starch hydrolysis DNS assay with commercial enzyme, absorbance at […] nm; format: biochemical
α-glucosidase (α-GLU) = assay: PNPG hydrolysis assay with commercial enzyme, absorbance at […] nm; format: biochemical

Question: Which IC50 (α-amylase (α-AMY)) does the source give for `O=C1c2c(O)cc(O)cc2O[C@H](c2cc(O)c(O)c(O)c2)[C@H]1O` [DHM, Dihydromyricetin] here?
Answer: Its IC50 is 4614 µg/mL (≈ 14.4 mM).

Question: And the IC50 (α-glucosidase (α-GLU))?
Answer: Its IC50 is 96.12 µg/mL (≈ 0.3 mM).
